This is an account of results in PMC9478638 (Proceedings of the National Academy of Sciences of the …, 2022).

Broadly, the IC50 is the concentration that gives 50% inhibition. A low value points to inhibition by little substance. The term Ki denotes the equilibrium dissociation constant of an inhibitor or competing ligand from its target. A higher Ki goes with lower affinity.

Molecules are shown by their SMILES.

The target of one assay is T1, Dgt–Gp1.2 complex (Escherichia coli; Escherichia phage T7, UniProt P03780+P15723).
T1 sequence (P15723 1-505): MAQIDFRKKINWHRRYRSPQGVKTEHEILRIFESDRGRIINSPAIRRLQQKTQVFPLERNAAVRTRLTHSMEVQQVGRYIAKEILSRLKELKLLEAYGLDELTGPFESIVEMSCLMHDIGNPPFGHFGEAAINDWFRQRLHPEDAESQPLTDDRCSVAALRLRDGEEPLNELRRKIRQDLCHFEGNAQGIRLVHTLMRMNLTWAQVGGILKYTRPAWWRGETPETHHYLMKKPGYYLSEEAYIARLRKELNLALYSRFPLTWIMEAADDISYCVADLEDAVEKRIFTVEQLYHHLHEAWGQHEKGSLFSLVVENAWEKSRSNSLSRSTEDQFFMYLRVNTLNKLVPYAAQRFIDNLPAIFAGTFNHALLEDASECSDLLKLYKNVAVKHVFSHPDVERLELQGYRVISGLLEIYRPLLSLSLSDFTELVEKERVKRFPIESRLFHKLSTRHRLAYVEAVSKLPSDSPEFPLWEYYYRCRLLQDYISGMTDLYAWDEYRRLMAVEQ
T1 sequence (P03780 2-85): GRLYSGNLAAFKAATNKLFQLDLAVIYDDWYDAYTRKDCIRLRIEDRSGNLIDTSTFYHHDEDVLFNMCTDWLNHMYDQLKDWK
Kind of assay: PNP/xanthine oxidase coupled dGTPase assay, A297. It is filed as biochemical.

The target of the next assay is T2, E. coli Dgt (Escherichia coli, UniProt P15723).
T2 sequence (P15723 1-505): T1 sequence (P15723 1-505)
Kind of assay: PNP/xanthine oxidase coupled dGTPase assay, A297. It is filed as biochemical.

At Dgt–Gp1.2 complex, `Nc1nc2c(ncn2[C@@H]2O[C@H](COP(=O)(O)OP(=O)(O)OP(=O)(O)O)[C@@H](O)[C@H]2O)c(=O)[nH]1` [GTP] returned an IC50 of 0.31 ± 0.05 µM. The molecule also displayed a Ki on E. coli Dgt of 120 ± 50 µM.
